Test results: ChEMBL document CHEMBL1697731, “Cheminformatics analysis of assertions mined from literature that describe drug-induced liver injury in different species” (Chem Res Toxicol, 2010)

Columns and labels:
[1] = tested on: Hepatotoxicity; test: Literature-mined compound from Fourches et al multi-species drug-induced liver injury (DILI) dataset, effect in non-rodents
[2] = tested on: Hepatotoxicity; test: Literature-mined compound from Fourches et al multi-species drug-induced liver injury (DILI) dataset, effect in rodents; settings: rodentia
[3] = tested on: Hepatotoxicity; test: Literature-mined compound from Fourches et al multi-species drug-induced liver injury (DILI) dataset, effect in humans; settings: human

Row | Compound | Hepatotoxicity [1] | Hepatotoxicity [2] | Hepatotoxicity [3] | Hepatotoxicity ([1]; Liver) | Hepatotoxicity ([2]; Liver) | Hepatotoxicity ([3]; Liver)
1 | COc1cc2c(c(OC)c1OC)-c1ccc(OC)c(=O)cc1[C@@H](NC(C)=O)CC2 [COLCHICINE] | no drug-induced liver injury reported | drug-induced liver injury reported | drug-induced liver injury reported |  |  | 
2 | CN(CC(=O)O)C(=N)N [CREATINE] | no drug-induced liver injury reported | drug-induced liver injury reported | no drug-induced liver injury reported |  |  | 
3 | Cc1ncc(COP(=O)(O)O)c(C=O)c1O [PYRIDOXAL PHOSPHATE ANHYDROUS] | no drug-induced liver injury reported | drug-induced liver injury reported | no drug-induced liver injury reported |  |  | 
4 | COc1cnc(NS(=O)(=O)c2ccc(N)cc2)nc1 | no drug-induced liver injury reported | no drug-induced liver injury reported | drug-induced liver injury reported |  |  | 
5 | CCCCCCCCc1ccc(CCC(N)(CO)CO)cc1 [FINGOLIMOD] | no drug-induced liver injury reported | drug-induced liver injury reported | drug-induced liver injury reported |  |  | 
6 | COc1ccc(C(=O)Nc2ccccc2CCC2CCCCN2C)cc1 (centres undefined) [ENCAINIDE] | no drug-induced liver injury reported | no drug-induced liver injury reported | drug-induced liver injury reported |  |  | 
7 | NC[C@@H]1O[C@H](O[C@H]2[C@@H](O)[C@H](O[C@@H]3[C@@H](O)[C@H](N)C[C@H](N)[C@H]3O[C@H]3O[C@H](CN)[C@@H](O)[C@H](O)[C@H]3N)O[C@@H]2CO)[C@H](N)[C@@H](O)[C@@H]1O [FRAMYCETIN] |  |  |  | no drug-induced liver injury reported | drug-induced liver injury reported | no drug-induced liver injury reported
8 | CCC(C)C(C)(COC(N)=O)COC(N)=O (centres undefined) [MEBUTAMATE] | no drug-induced liver injury reported | drug-induced liver injury reported | no drug-induced liver injury reported |  |  | 
9 | COc1ccccc1Oc1c(NS(=O)(=O)c2ccc(C(C)C)cn2)nc(-c2ccnc(-c3nnn[nH]3)c2)nc1OCCO [TEZOSENTAN] | no drug-induced liver injury reported | drug-induced liver injury reported | no drug-induced liver injury reported |  |  | 
10 | Cc1onc(-c2ccccc2)c1C(=O)N[C@@H]1C(=O)N2[C@@H]1SC(C)(C)[C@@H]2C(=O)[O-].[Na+] | no drug-induced liver injury reported | no drug-induced liver injury reported | drug-induced liver injury reported |  |  | 
11 | SILYMARIN | no drug-induced liver injury reported | drug-induced liver injury reported | drug-induced liver injury reported |  |  | 
12 | O=C(NCN1CCOCC1)c1cnccn1 [MORINAMIDE] | no drug-induced liver injury reported | no drug-induced liver injury reported | drug-induced liver injury reported |  |  | 
13 | CCCCCCCCCCC[C@@H](C[C@@H]1OC(=O)[C@H]1CCCCCC)OC(=O)[C@H](CC(C)C)NC=O [ORLISTAT] | no drug-induced liver injury reported | no drug-induced liver injury reported | drug-induced liver injury reported |  |  | 
14 | MANGAFODIPIR TRISODIUM | no drug-induced liver injury reported | no drug-induced liver injury reported | drug-induced liver injury reported |  |  | 
15 | C#C[C@]1(O)CC[C@H]2[C@@H]3CCC4=CCCC[C@@H]4[C@H]3C(=C)C[C@@]21CC [DESOGESTREL] | no drug-induced liver injury reported | no drug-induced liver injury reported | drug-induced liver injury reported |  |  | 
16 | GENTAMICIN | no drug-induced liver injury reported | drug-induced liver injury reported | no drug-induced liver injury reported |  |  | 
17 | CC1(C)O[C@@H]2[C@@H](CO[C@@]3(COS(N)(=O)=O)OC(C)(C)O[C@@H]23)O1 [TOPIRAMATE] | no drug-induced liver injury reported | no drug-induced liver injury reported | drug-induced liver injury reported |  |  | 
18 | CCOC(=O)[C@H](CCc1ccccc1)N[C@@H](C)C(=O)N1[C@H](C(=O)O)C[C@@H]2CCC[C@@H]21 | no drug-induced liver injury reported | drug-induced liver injury reported | drug-induced liver injury reported |  |  | 
19 | CCCCNc1ccc(C(=O)OCCN(C)C)cc1 [TETRACAINE] | no drug-induced liver injury reported | drug-induced liver injury reported | no drug-induced liver injury reported |  |  | 

Row | Compound | Hepatotoxicity [1] | Hepatotoxicity [2] | Hepatotoxicity [3] | Hepatotoxicity ([1]; Liver) | Hepatotoxicity ([2]; Liver) | Hepatotoxicity ([3]; Liver)
20 | C=C1CC[C@H](O)C/C1=C/C=C1\CCC[C@]2(C)[C@@H]([C@H](C)CCCC(C)C)CC[C@@H]12 [CHOLECALCIFEROL] | no drug-induced liver injury reported | drug-induced liver injury reported | no drug-induced liver injury reported |  |  | 
21 | c1ccc([C@H]2CN3CCSC3=N2)cc1 [LEVAMISOLE] |  |  |  | no drug-induced liver injury reported | drug-induced liver injury reported | drug-induced liver injury reported
22 | COc1ccc(-c2cc(=S)ss2)cc1 [ANETHOLTRITHION] | no drug-induced liver injury reported | drug-induced liver injury reported | no drug-induced liver injury reported |  |  | 
23 | Nc1nc2ccc(OC(F)(F)F)cc2s1 [RILUZOLE] | no drug-induced liver injury reported | no drug-induced liver injury reported | drug-induced liver injury reported |  |  | 
24 | Cc1ccc(N(CC2=NCCN2)c2cccc(O)c2)cc1 [PHENTOLAMINE] | drug-induced liver injury reported | drug-induced liver injury reported | no drug-induced liver injury reported |  |  | 
25 | Oc1c(Cl)cc(Cl)c(Cl)c1Cc1c(O)c(Cl)cc(Cl)c1Cl [HEXACHLOROPHENE] | no drug-induced liver injury reported | drug-induced liver injury reported | no drug-induced liver injury reported |  |  | 
26 | C[C@@H](O)[C@H](NC(=O)N(C)c1ncnc2c1ncn2[C@@H]1O[C@H](COP(=O)(O)O)[C@@H](O)[C@H]1O)C(=O)O | no drug-induced liver injury reported | drug-induced liver injury reported | no drug-induced liver injury reported |  |  | 
27 | O=P(O)(O)OC[C@H]1O[C@@](O)(COP(=O)(O)O)[C@@H](O)[C@@H]1O [FRUCTOSE 1,6-DIPHOSPHATE] | no drug-induced liver injury reported | drug-induced liver injury reported | drug-induced liver injury reported |  |  | 
28 | CN1C(=O)CCS(=O)(=O)C1c1ccc(Cl)cc1 (centres undefined) [CHLORMEZANONE] | no drug-induced liver injury reported | no drug-induced liver injury reported | drug-induced liver injury reported |  |  | 
29 | COc1cc(N)c(Cl)cc1C(=O)NC1CCN(CCCOc2ccc(F)cc2)CC1OC (centres undefined) [CISAPRIDE] | no drug-induced liver injury reported | no drug-induced liver injury reported | drug-induced liver injury reported |  |  | 
30 | METHYLCOBALAMIN | no drug-induced liver injury reported | drug-induced liver injury reported | no drug-induced liver injury reported |  |  | 
31 | O=C(O)[C@H](CC(=O)N1C[C@H]2CCCC[C@H]2C1)Cc1ccccc1 [MITIGLINIDE] | no drug-induced liver injury reported | drug-induced liver injury reported | no drug-induced liver injury reported |  |  | 
32 | Cc1ccc(S(=O)(=O)[N-]Cl)cc1.[Na+] [CHLORAMINE-T ANHYDROUS] | drug-induced liver injury reported | drug-induced liver injury reported | no drug-induced liver injury reported |  |  | 
33 | HYALURONIC ACID | no drug-induced liver injury reported | drug-induced liver injury reported | drug-induced liver injury reported |  |  | 
34 | ClC=C(Cl)Cl [TRICHLOROETHYLENE] | no drug-induced liver injury reported | drug-induced liver injury reported | drug-induced liver injury reported |  |  | 
35 | Clc1ccc(C(c2ccc(Cl)cc2)C(Cl)(Cl)Cl)cc1 [CHLOROPHENOTHANE] | no drug-induced liver injury reported | drug-induced liver injury reported | no drug-induced liver injury reported |  |  | 
36 | O=C1O[C@H]([C@@H](O)CO)C(O)=C1O [ASCORBIC ACID] | drug-induced liver injury reported | drug-induced liver injury reported | drug-induced liver injury reported |  |  | 
37 | CN(C)C(=O)C(CCN1CCC(O)(c2ccc(Cl)cc2)CC1)(c1ccccc1)c1ccccc1 [LOPERAMIDE] | no drug-induced liver injury reported | drug-induced liver injury reported | no drug-induced liver injury reported |  |  | 
38 | C/C=C/C[C@@H](C)C(=O)[C@H]1C(=O)N[C@@H](C(C)C)C(=O)N(C)CC(=O)N(C)[C@@H](CC(C)C)C(=O)N[C@@H](C(C)C)C(=O)N(C)[C@@H](CC(C)C)C(=O)N[C@@H](C)C(=O)N[C@H](C)C(=O)N(C)[C@@H](CC(C)C)C(=O)N(C)[C@@H](CC(C)C)C(=O)N(C)[C@@H](C(C)C)C(=O)N1C [VALSPODAR] | no drug-induced liver injury reported | drug-induced liver injury reported | drug-induced liver injury reported |  |  | 
